# Laboratory results published in patent publication US12310967B2, “Compositions and methods of treatment for neurological disorders comprising motor neuron diseases” (Gliapharm SA, priority 2017, dated 2025).
# Like-named read-outs stand apart in the source and are kept apart here.
# Test system: primary astrocytes
# Test: Extracellular lactate quantification
# Format: cell-based, mouse
# Settings: Appendix II; for Score Lact.: CDC54K library; for EC50: lactate secretion, read-out: EC50
# Protocol: Secretion of L-lactate was determined in the extracellular medium of 96-well plated astrocytes after 90 min stimulation (at 37° C., in 5% CO2/95% air conditions) with the drug of interest. The stimulation medium was composed of D5030 medium (completed with D-glucose 5 mM and 44 mM sodium bicarbonate) for 90 min in concentrations ranging from 0 to 100 μM.
# Briefly, 200 μl of a Glycine (Sigma)-Semicarbazide (Acros) 0.2M pH 10 buffer containing 3 mM NAD (Roche) and LDH 14 U/ml (Roche) was added to each well of a 96-well plate containing 30 μl aliquots complemented with 20 μl fresh complete D5030 medium. Samples were incubated at 37° C. for 1 h. After samples cooled down at room temperature, the fluorescence intensity (340 nm excitation/450 nm emission) that represents the amount of NADH produced was measured, and lactate concentration values were determined from a standard curve of L-lactate.
# Statistical analysis consisted in ANOVA followed by Fisher LSD post-hoc test for pair-wise comparisons.
# Levels of lactate secreted by astrocytes were measured in the extracellular medium at 90 min after stimulation with hits (molecules) from the CDC54K library.
SMILES,Score Lact.,"EC50 (Mus musculus, Astrocyte)",EC50
C1=C(c2ccccc2)c2c(ncnc2NCCN2CCOCC2)C1.O=C(O)C(=O)O.O=C(O)C(=O)O [T0513-0213],0.30,3.99 µM,
CCc1c(C)nc2ncnn2c1NC1CCCCC1 [Z606-8352],0.83,,
CCN1C(=O)c2cccc3c(S(=O)(=O)Nc4ccc(OC)cc4OC)ccc1c23 [T5477696],0.44,,
CC(=O)N1CC(C)(C)c2cc(S(=O)(=O)NCc3ccc(C)cc3)ccc21 [L302-0069],0.55,,
Cc1nc2ccccc2n1CCOc1ccc(Br)cc1 [T0505-4087],0.64,,
COc1ccc(-c2csc(N3C(=O)CC4CS(=O)(=O)CC43)n2)cc1 (stereo not shown) [T5832764],0.60,,4.02 µM
C1=Cc2ncnc(NCc3ccccc3CN3CCOCC3)c2C1 [T5790476],0.79,3.98 µM,
CC(=O)c1c(C)[nH]c(C(=O)C(C)N(C)Cc2ccc3c(c2)OCO3)c1C (stereo not shown) [T5798761],0.73,,
CCc1cc2c(NC3CCCC3)ncnc2s1 [887-0183],0.66,,
CC1=C(C)c2c(N)nc(CCc3nc4ccccc4[nH]3)nc2C1 [T5719257],0.74,2.85 µM,
COc1ccc(NS(=O)(=O)c2ccc(NC(=O)C3CCCO3)cc2)cc1 (stereo not shown) [T5329723],0.53,,
CC(=O)N1CCCc2cc(S(=O)(=O)Nc3ccc(OC(F)(F)F)cc3)ccc21 [G855-0183],0.54,,
O=C(Nc1ccc(S(=O)(=O)NCC2CCCO2)cc1)c1ccccc1 (stereo not shown) [Y031-0361],0.43,,
CC(C)(C)c1cccc(CNc2ncnc3[nH]ncc23)c1 [F5285-0069],0.36,6.29 µM,
Cc1cccc(NC(=O)NC2CCN(c3nc4ccccc4n(C)c3=O)CC2)c1 [L932-0267],0.53,4.64 µM,
CN1c2ccccc2C(=O)NC1c1ccc(Cl)c(Cl)c1 (stereo not shown) [T5389517],0.33,,
O=c1[nH]nc(SCCOc2ccc(Br)cc2)n1C1CC1 [T533260],0.53,6.84 µM,
Br.CCOc1ccc(C2(O)C(C)C3=C(CCN3)N2c2ccc(OC)cc2)cc1 (stereo not shown) [T0500-6629],0.61,2.61 µM,
CCOc1ccc(C2=CCc3c2ncn(Cc2ccncc2)c3=O)cc1OCC [L115-0403],0.81,3.28 µM,
Cc1ccc(S(=O)(=O)Nc2ccc(F)c(F)c2F)cc1[N+](=O)[O-] [T5729557],0.88,,
CC1(C)Cc2cccc(OCC(O)CN3CCc4ccccc4C3)c2O1 (stereo not shown) [T0515-1783],0.59,,
COc1ccc(CCNc2ncnc3c2cnn3C)cc1 [K405-2595],0.70,,

SMILES,Score Lact.,"EC50 (Mus musculus, Astrocyte)",EC50
CC(=O)c1c(C)[nH]c(C(=O)N(C)Cc2ccc(C)cc2C)c1C [T5705522],0.85,,
CCNc1cc(C)nc(Nc2ccc(NC(=O)C3=CC=CC3)cc2)n1 [G869-0071],0.63,4.9 µM,
CCc1ccc(NC(=O)Cc2cn(C)c3ncccc23)cc1 [M508-0370],0.60,,
Cc1nc2ncnn2c(NCc2ccco2)c1C [Z606-8298],0.38,,
Cc1nc2ncnn2c(NC2CCCCCC2)c1C [Z606-8287],0.57,,
CCCCN1C(=O)C(C)(C(=O)Nc2ccc(OCC)cc2)Oc2cccnc21 (stereo not shown) [P621-1364],0.43,,
Cc1cccc(NC(=O)c2ccc(S(=O)(=O)Nc3ccccc3)cc2)n1 [T6125251],0.51,,
CCc1ccc(S(=O)(=O)Nc2c(C)nn(C)c2C)cc1 [T5753165],0.54,,
Cc1cccc(NS(=O)(=O)c2ccc(F)c(Cl)c2)c1 [F3394-1364],0.33,,5.87 µM
COc1ccc(C(C)NC(=O)c2cc(=O)c3ccccc3o2)cc1I (stereo not shown) [T5710343],0.67,6.31 µM,
Cc1cc(C)cc(NC(=O)CN2CCCC2c2ccc3c(c2)OCCCO3)c1 (stereo not shown) [T5993799],1.14,8.81 µM,
Cc1ccc(OCCn2c(C)nc3ccccc32)cc1 [T5444083],0.51,,
COc1cc(C)c(NC(=O)Cc2ccc(C)c(C)c2)cc1OC [T5783794],0.44,6.11 µM,
CCCC(=O)NC1=NC(c2ccc3c(c2)CCO3)=CC1 [T5691896],0.38,5.21 µM,
Cc1c(O)ccc2c(CN(C)CC3COc4ccccc4O3)cc(=O)oc12 (stereo not shown) [T5494352],0.44,,
C1=Cc2ncnc(NCc3ccc4c(c3)OCO4)c2C1 [T5787526],0.71,3.89 µM,
Cc1noc2ncnc(NC(C)CCc3ccccc3)c12 (stereo not shown) [E944-0182],0.55,,
COc1ccc(NS(=O)(=O)c2cccc(NC(=O)c3ccc[nH]3)c2)cc1 [T0517-4117],0.91,5.43 µM,
Cn1nc(C(=O)Nc2ccc(Oc3ccccc3Cl)cc2)ccc1=O [T5813085],1.01,,
CCn1c(=O)c(C)nc2cc(C(=O)N(Cc3ccc(C)cc3)C3CC3)ccc21 [T5586091],0.45,5.36 µM,
Cc1ccc(-c2c[nH]c(NC(=O)c3ccncc3)n2)cc1[N+](=O)[O-] [T5694329],0.47,1.59 µM,
O=C(O)C(=O)O.c1ccc(Cc2ccc(OCCn3ccnc3)cc2)cc1 [T5821723],0.73,,

SMILES,Score Lact.,"EC50 (Mus musculus, Astrocyte)",EC50
CCc1cccc(NS(=O)(=O)c2ccc3c(c2)CCCN3C(C)=O)c1 [G855-0143],0.56,,
COc1ccc(CC(=O)Nc2ccc(C)c(C)c2)cc1OC [Y030-2832],0.34,,
CCCCn1c(CN(C)Cc2ccccc2)nc2c1c(=O)n(C)c(=O)n2C [T5788545],0.45,,
C1CCCC(NC2=NCCCNC23CCCCC3)CC1 [Z076-0028],0.56,,
COc1cccc(C(CNc2nc(C(C)(C)C)nc3ccccc23)N(C)C)c1 (stereo not shown) [T5800607],063,5.87 µM,
CC(=O)N1CCc2cc(S(=O)(=O)NCC(C)c3ccccc3)ccc21 (stereo not shown) [T5707230],0.67,,4.88 µM
CN(C)S(=O)(=O)c1cccc(C(=O)Nc2ccc(Oc3ccccc3)cc2)c1 [T5393500],0.59,,
CCc1ccccc1NC(=O)CN(C)c1nccc2c1oc1ccccc12 [T5712071],0.8,1.14 µM,
CN(C)c1ccc2ncnc(N3CCN(C(=O)c4ccc(Cl)cc4)CC3)c2c1 [M381-0730],0.57,,
CCNc1cc(C)nc(Nc2ccc(NC(=O)Cc3ccccc3)cc2)n1 [G869-0064],0.54,,
CC(=O)N1CC(C)(C)c2cc(S(=O)(=O)Nc3ccc(I)cc3C)ccc21 [L302-0181],0.52,5.05 µM,
CCc1c(C)nc2ncnn2c1NC1CCCCCC1 [Z606-8351],0.42,,
CCN(CC)C(=O)c1nc(CNC(=O)c2ccc3ccccc3n2)oc1C [T993-1787],0.36,,
O=S(=O)(Nc1ccc(Cl)cc1)c1ccc(F)c(Cl)c1 [T6947848],0.98,,
N#Cc1cc(C(=O)c2cc(I)ccc2O)cn(-c2ccc(I)c(Cl)c2)c1=O [T0516-6894],0.38,8.21 µM,
COc1ccc(S(=O)(=O)Nc2ccc(N3CCCCS3(=O)=O)cc2)cc1F [F2794-0128],0.62,,9.85 µM
CC(=O)Nc1cccc(NC(=O)CCc2nc(C)c(C)n2C2CCCC2)c1 [T5788339],0.75,3.9 µM,
Cc1nnsc1C(=O)N1CCN(C(C)C)CC1 [Z606-5341],0.36,,
CCOc1ccc(CN(C)CC(=O)Nc2cccc(C)c2)cc1OC [T5318833],0.42,,
Cc1[nH]c2nc(CNc3nc4ccccc4c(=O)n3C)[nH]c(=O)c2c1C [T0517-2783],0.46,3.84 µM,
COc1ccccc1NC(=O)CO/N=C(/N)c1cccc(C(C)(F)F)c1 [T5770640],0.55,4.86 µM,
O=S(=O)(Nc1ccc(S(=O)(=O)C(F)F)cc1)c1ccc(Cl)cc1 [T5311200],0.56,,
